In patent US12310975B2, “Modulators of BCL6 proteolysis and associated methods of use” (Arvinas Operations, Inc., priority 2019, dated 2025):

Molecular target: BCL6 (Homo sapiens (Human), UniProt P41182)
Assay: Immunofluorescence high content imaging of BCL6 degradation in T47D cells
Format: cell-based
Settings: for Dmax: T47D
Method in brief: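 T47D cells were treated for 3 days at 37 °C with 11-point 3-fold dilutions of bifunctional degrader (final top 0.1 or 1 μM). BCL6 was detected by immunofluorescence after PFA fixation, with Hoechst and cell mask counterstains, and imaged at 10×, 4 fields/well.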

**Q.** How did the IC50 turn out when `CC(=O)COc1cc2cc(Nc3nc(C#CC4CCCN(c5ccc6c(c5)C(=O)N(C5CCC(=O)NC5=O)C6=O)C4)ncc3Cl)ccc2n(C)c1=O` (stereo not shown) [compound 181, 5-(3-((5-chloro-4-((1-methyl-2-oxo-3-(2-oxopropoxy)-1,2-dihydroquinolin-6-yl)amino)pyrimidin-2-yl)ethynyl)piperidin-1-yl)-2-(2,6-dioxopiperidin-3-yl)isoindoline-1,3-dione] was run?
**A.** ≥ 100 nM

**Q.** How did the IC50 turn out when `CC(=O)COc1cc2cc(Nc3nc(N4CCC(N5CCCC5COc5ccc6c(c5)C(=O)N(C5CCC(=O)NC5=O)C6=O)CC4)ncc3Cl)ccc2n(C)c1=O` (stereo not shown) [compound 182, 5-((1-(1-(5-chloro-4-((1-methyl-2-oxo-3-(2-oxopropoxy)-1,2-dihydroquinolin-6-yl)amino)pyrimidin-2-yl)piperidin-4-yl)pyrrolidin-2-yl)methoxy)-2-(2,6-dioxopiperidin-3-yl)isoindoline-1,3-dione] was run?
**A.** ≥ 100 nM

**Q.** What about the Dmax of the same molecule?
**A.** < 50%

**Q.** Which IC50 does the source give for `CC(=O)COc1cc2cc(Nc3nc(N4CC(OC5CCN(c6ccc7c(c6)C(=O)N(C6CCC(=O)NC6=O)C7=O)CC5)C4)ncc3Cl)ccc2n(C)c1=O` (stereo not shown) [compound 183, 5-(4-((1-(5-chloro-4-((1-methyl-2-oxo-3-(2-oxopropoxy)-1,2-dihydroquinolin-6-yl)amino)pyrimidin-2-yl)azetidin-3-yl)oxy)piperidin-1-yl)-2-(2,6-dioxopiperidin-3-yl)isoindoline-1,3-dione] here?
**A.** 10 to 50 nM

**Q.** And the Dmax?
**A.** < 50%

**Q.** `CC(=O)COc1cc2cc(Nc3nc(C#CC4CCN(c5cccc6c5C(=O)N(C5CCC(=O)NC5=O)C6=O)CC4)ncc3Cl)ccc2n(C)c1=O` (stereo not shown) [compound 184, 4-(4-((5-chloro-4-((1-methyl-2-oxo-3-(2-oxopropoxy)-1,2-dihydroquinolin-6-yl)amino)pyrimidin-2-yl)ethynyl)piperidin-1-yl)-2-(2,6-dioxopiperidin-3-yl)isoindoline-1,3-dione] was tested. Which IC50 did it give?
**A.** 10 to 50 nM

**Q.** And the Dmax?
**A.** 50 to 70%

**Q.** How did the IC50 turn out when `CNC(=O)COc1cc2cc(Nc3nc(N4CCN(C)CC4)ncc3Cl)ccc2n(CCCCOc2ccc3c(c2)C(=O)N(C2CCC(=O)NC2=O)C3=O)c1=O` (stereo not shown) [compound 238, 2-((6-((5-chloro-2-(4-methylpiperazin-1-yl)pyrimidin-4-yl)amino)-1-(4-((2-(2,6-dioxopiperidin-3-yl)-1,3-dioxoisoindolin-5-yl)oxy)butyl)-2-oxo-1,2-dihydroquinolin-3-yl)oxy)-N-methylacetamide] was run?
**A.** ≥ 100 nM

**Q.** And the Dmax?
**A.** < 50%

**Q.** With `CNC(=O)Cc1cc2cc(Nc3nc(N4CCC(CN5CCN(c6ccc7c(c6)C(=O)N(C6CCC(=O)NC6=O)C7=O)CC5)CC4)ncc3Cl)ccc2n(C)c1=O` (stereo not shown) [compound 239, 2-(6-((5-chloro-2-(4-((4-(2-(2,6-dioxopiperidin-3-yl)-1,3-dioxoisoindolin-5-yl)piperazin-1-yl)methyl)piperidin-1-yl)pyrimidin-4-yl)amino)-1-methyl-2-oxo-1,2-dihydroquinolin-3-yl)-N-methylacetamide] as the molecule, how does the IC50 read?
**A.** ≥ 100 nM

**Q.** Which results are given for `CNC(=O)COc1cc2cc(Nc3nc(N4CCN(CC5(O)CCN(c6ccc7c(c6)C(=O)N(C6CCC(=O)NC6=O)C7=O)CC5)CC4)ncc3Cl)ccc2n(C)c1=O` (stereo not shown) [compound 240, 2-((6-((5-chloro-2-(4-((1-(2-(2,6-dioxopiperidin-3-yl)-1,3-dioxoisoindolin-5-yl)-4-hydroxypiperidin-4-yl)methyl)piperazin-1-yl)pyrimidin-4-yl)amino)-1-methyl-2-oxo-1,2-dihydroquinolin-3-yl)oxy)-N-methylacetamide]?
**A.** IC50: 10 to 50 nM; Dmax: 50 to 70%

**Q.** What does the source list for `CNC(=O)COc1cc2cc(Nc3nc(N4CCCC(OC5CCN(c6ccc7c(c6)C(=O)N(C6CCC(=O)NC6=O)C7=O)CC5)CC4)ncc3Cl)ccc2n(C)c1=O` (stereo not shown) [compound 241, 2-((6-((5-chloro-2-(4-((1-(2-(2,6-dioxopiperidin-3-yl)-1,3-dioxoisoindolin-5-yl)piperidin-4-yl)oxy)azepan-1-yl)pyrimidin-4-yl)amino)-1-methyl-2-oxo-1,2-dihydroquinolin-3-yl)oxy)-N-methylacetamide]?
**A.** IC50: 10 to 50 nM; Dmax: < 50%

**Q.** How did the IC50 turn out when `CNC(=O)COc1cc2cc(Nc3nc(N4CCC(OC5CCCN(c6ccc7c(c6)C(=O)N(C6CCC(=O)NC6=O)C7=O)CC5)CC4)ncc3Cl)ccc2n(C)c1=O` (stereo not shown) [compound 242, 2-((6-((5-chloro-2-(4-((1-(2-(2,6-dioxopiperidin-3-yl)-1,3-dioxoisoindolin-5-yl)azepan-4-yl)oxy)piperidin-1-yl)pyrimidin-4-yl)amino)-1-methyl-2-oxo-1,2-dihydroquinolin-3-yl)oxy)-N-methylacetamide] was run?
**A.** ≥ 100 nM

**Q.** With `CNC(=O)COc1cc2cc(Nc3nc(N4CCN(CC5CCN(c6ccc(C(=O)NC7CCC(=O)NC7=O)c(OC)c6)CC5)CC4)ncc3Cl)ccc2n(C)c1=O` (stereo not shown) [compound 243, 4-(4-((4-(5-chloro-4-((1-methyl-3-(2-(methylamino)-2-oxoethoxy)-2-oxo-1,2-dihydroquinolin-6-yl)amino)pyrimidin-2-yl)piperazin-1-yl)methyl)piperidin-1-yl)-N-(2,6-dioxopiperidin-3-yl)-2-methoxybenzamide] as the molecule, how does the IC50 read?
**A.** < 10 nM

**Q.** And the Dmax?
**A.** ≥ 70%

**Q.** What does the source list for `CNC(=O)COc1cc2cc(Nc3nc(N4CCN(C)CC4)ncc3Cl)ccc2n(CCCOc2ccc3c(c2)C(=O)N(C2CCC(=O)NC2=O)C3=O)c1=O` (stereo not shown) [compound 244, 2-((6-((5-chloro-2-(4-methylpiperazin-1-yl)pyrimidin-4-yl)amino)-1-(3-((2-(2,6-dioxopiperidin-3-yl)-1,3-dioxoisoindolin-5-yl)oxy)propyl)-2-oxo-1,2-dihydroquinolin-3-yl)oxy)-N-methylacetamide]?
**A.** IC50: ≥ 100 nM; Dmax: ≥ 70%

**Q.** For `CNC(=O)COc1cc2cc(Nc3nc(N4CCN(CC5CN(c6ccc7c(c6)C(=O)N(C6CCC(=O)NC6=O)C7=O)C5)CC4)ncc3Cl)ccc2n(C)c1=O` (stereo not shown) [compound 246, 2-((6-((5-chloro-2-(4-((1-(2-(2,6-dioxopiperidin-3-yl)-1,3-dioxoisoindolin-5-yl)azetidin-3-yl)methyl)piperazin-1-yl)pyrimidin-4-yl)amino)-1-methyl-2-oxo-1,2-dihydroquinolin-3-yl)oxy)-N-methylacetamide], which IC50 is on record?
**A.** < 10 nM

**Q.** What about the Dmax of the same molecule?
**A.** ≥ 70%

**Q.** Which IC50 does the source give for `CNC(=O)COc1cc2cc(Nc3nc(N4CCC(CCOC5CN(c6ccc7c(c6)C(=O)N(C6CCC(=O)NC6=O)C7=O)C5)CC4)ncc3Cl)ccc2n(C)c1=O` (stereo not shown) [compound 247, 2-((6-((5-chloro-2-(4-(2-((1-(2-(2,6-dioxopiperidin-3-yl)-1,3-dioxoisoindolin-5-yl)azetidin-3-yl)oxy)ethyl)piperidin-1-yl)pyrimidin-4-yl)amino)-1-methyl-2-oxo-1,2-dihydroquinolin-3-yl)oxy)-N-methylacetamide] here?
**A.** < 10 nM

**Q.** And the Dmax?
**A.** 50 to 70%

**Q.** How did the IC50 turn out when `CNC(=O)COc1cc2cc(Nc3nc(N4CCC(CN5CC6(C5)CN(c5ccc7c(c5)C(=O)N(C5CCC(=O)NC5=O)C7=O)C6)CC4)ncc3Cl)ccc2n(C)c1=O` (stereo not shown) [compound 248, 2-((6-((5-chloro-2-(4-((6-(2-(2,6-dioxopiperidin-3-yl)-1,3-dioxoisoindolin-5-yl)-2,6-diazaspiro[3.3]heptan-2-yl)methyl)piperidin-1-yl)pyrimidin-4-yl)amino)-1-methyl-2-oxo-1,2-dihydroquinolin-3-yl)oxy)-N-methylacetamide] was run?
**A.** ≥ 100 nM

**Q.** With `Cn1c(=O)c(N2CCC2=O)cc2cc(Nc3nc(N4CCN(CC5CCN(c6ccc7c(c6)C(=O)N(C6CCC(=O)NC6=O)C7=O)CC5)CC4)ncc3Cl)ccc21` (stereo not shown) [compound 249, 5-(4-((4-(5-chloro-4-((1-methyl-2-oxo-3-(2-oxoazetidin-1-yl)-1,2-dihydroquinolin-6-yl)amino)pyrimidin-2-yl)piperazin-1-yl)methyl)piperidin-1-yl)-2-(2,6-dioxopiperidin-3-yl)isoindoline-1,3-dione] as the molecule, how does the IC50 read?
**A.** ≥ 100 nM

**Q.** Which results are given for `CCn1c(=O)c(OCC(=O)NC)cc2cc(Nc3nc(N4CCN(CC5CCN(c6ccc7c(c6)C(=O)N(C6CCC(=O)NC6=O)C7=O)CC5)CC4)ncc3Cl)ccc21` (stereo not shown) [compound 250, 2-((6-((5-chloro-2-(4-((1-(2-(2,6-dioxopiperidin-3-yl)-1,3-dioxoisoindolin-5-yl)piperidin-4-yl)methyl)piperazin-1-yl)pyrimidin-4-yl)amino)-1-ethyl-2-oxo-1,2-dihydroquinolin-3-yl)oxy)-N-methylacetamide]?
**A.** IC50: < 10 nM; Dmax: 50 to 70%

**Q.** For `CNC(=O)COc1cc2cc(Nc3nc(N4CCC(CCOC5CN(c6cccc7c6C(=O)N(C6CCC(=O)NC6=O)C7=O)C5)CC4)ncc3Cl)ccc2n(C)c1=O` (stereo not shown) [compound 252, 2-((6-((5-chloro-2-(4-(2-((1-(2-(2,6-dioxopiperidin-3-yl)-1,3-dioxoisoindolin-4-yl)azetidin-3-yl)oxy)ethyl)piperidin-1-yl)pyrimidin-4-yl)amino)-1-methyl-2-oxo-1,2-dihydroquinolin-3-yl)oxy)-N-methylacetamide], which IC50 is on record?
**A.** < 10 nM

**Q.** And the Dmax?
**A.** 50 to 70%

**Q.** How did the Dmax turn out when `CNC(=O)COc1cc2cc(Nc3cc(N4CCN(CC5CCN(c6ccc7c(c6)C(=O)N(C6CCC(=O)NC6=O)C7=O)CC5)CC4)ncc3Cl)ccc2n(C)c1=O` (stereo not shown) [compound 253, 2-((6-((5-chloro-2-(4-((1-(2-(2,6-dioxopiperidin-3-yl)-1,3-dioxoisoindolin-5-yl)piperidin-4-yl)methyl)piperazin-1-yl)pyridin-4-yl)amino)-1-methyl-2-oxo-1,2-dihydroquinolin-3-yl)oxy)-N-methylacetamide] was run?
**A.** ≥ 70%

**Q.** How did the IC50 turn out when `CNC(=O)COc1cc2cc(Nc3nc(N4CCN(CC5CCN(c6ccc7c(c6)C(=O)N(C6CCC(=O)NC6=O)C7=O)CC5)CC4)c(Cl)cc3Cl)ccc2n(C)c1=O` (stereo not shown) [compound 254, 2-((6-((3,5-dichloro-6-(4-((1-(2-(2,6-dioxopiperidin-3-yl)-1,3-dioxoisoindolin-5-yl)piperidin-4-yl)methyl)piperazin-1-yl)pyridin-2-yl)amino)-1-methyl-2-oxo-1,2-dihydroquinolin-3-yl)oxy)-N-methylacetamide] was run?
**A.** ≥ 100 nM
